Usually pIC50 stands for the IC50 on a negative log10 scale, so that one unit is a factor of ten.

The source of these data is US11591355B2 (Peloton Therapeutics, Inc., priority 2017, dated 2023).

Each structure is given as a SMILES string. pIC50: −log10 of the molar value.

The target in assay [1] is T1, Human CD73 (Homo sapiens, UniProt P21589).
T1 construct: purchased R&D Systems; host or cells: CHO cells
T1 sequence (P21589 27-549): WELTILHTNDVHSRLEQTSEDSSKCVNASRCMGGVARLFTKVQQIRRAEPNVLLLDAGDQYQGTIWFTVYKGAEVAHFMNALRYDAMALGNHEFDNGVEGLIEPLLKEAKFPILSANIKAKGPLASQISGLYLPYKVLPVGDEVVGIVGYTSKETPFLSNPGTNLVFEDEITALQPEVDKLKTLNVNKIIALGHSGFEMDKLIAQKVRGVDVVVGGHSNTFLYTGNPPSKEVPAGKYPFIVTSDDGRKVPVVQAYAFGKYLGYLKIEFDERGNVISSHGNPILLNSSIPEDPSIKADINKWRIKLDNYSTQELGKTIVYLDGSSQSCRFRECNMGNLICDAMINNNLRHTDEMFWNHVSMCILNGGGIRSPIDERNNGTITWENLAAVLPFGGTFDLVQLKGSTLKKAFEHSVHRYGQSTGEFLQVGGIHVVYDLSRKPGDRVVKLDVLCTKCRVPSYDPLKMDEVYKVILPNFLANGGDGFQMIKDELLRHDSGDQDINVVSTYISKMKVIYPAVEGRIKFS
Briefly: CD73 Enzyme Assay. Type of assay: biochemical. As to conditions: 0.25 nM hCD73, 25 μM AMP, kinetic read at 360 nm; read-out: CD73 Enzyme Assay IC50.

The target of assay [2] is T2, CD73 on U138 human neuroglioma cells (Homo sapiens, UniProt P21589).
T2 construct: U138 cells were obtained from ATCC and cultured in DMEM with 10% FBS; host or cells: U138 human neuroglioma cells
T2 sequence (P21589 27-549): T1 sequence (P21589 27-549)
Kind of assay: CD73 Cell-Based Assay. The settings on record: U138 cells, AMP substrate, 2 hours at 37° C., inorganic phosphate by malachite green. Put shortly: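 Whole U138 cells washed free of phosphate were incubated with 200 μM AMP (mixture concentration before equal-volume addition) plus compound in HEPES-buffered saline, pH 7.4, for 2 h at 37 °C, 5% CO2. Adenosine-forming activity read as inorganic phosphate released into supernatant by malachite green.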

As to `O=P(O)(O)COC[C@H]1O[C@@H](n2ccc3c(NC4CCCC4)nc(Oc4cccnc4)nc32)[C@H](O)[C@@H]1O` [Compound 248, [(2R,3S,4R,5R)-5-[4-(cyclopentylamino)-2-(3-pyridyloxy)pyrrolo-[2,3-d]pyrimidin-7-yl]-3,4-dihydroxy-tetra-hydrofuran-2-yl]meth-oxymethylphosphonic acid], the pIC50 in assay [1] and in assay [2] was 6.00 to 7.00 throughout.
`O=P(O)(O)COC[C@H]1O[C@@H](n2ccc3c(NC4CCCC4)nc(O)nc32)[C@H](O)[C@@H]1O` [Compound 250, [(2R,3S,4R,5R)-5-[4-(cyclopentylamino)-2-hydroxy-pyrrolo[2,3-d]pyrimidin-7-yl]-3,4-dihydroxy-tetrahydro-furan-2-yl]methoxy-methylphosphonic acid]: the negative logarithm of the IC50 (pIC50) in assay [1] and in assay [2] was 7.00 to 8.00 each time.
Take `COCC#Cc1nc(NC2CCCC2)c2ccn([C@@H]3O[C@H](COCP(=O)(O)O)[C@@H](O)[C@H]3O)c2n1` [Compound 252, [(2R,3S,4R,5R)-5-[4-(cyclopentylamino)-2-(3-methoxyprop-1-ynyl)pyrrolo[2,3-d]-pyrimidin-7-yl]-3,4-dihydroxy-tetrahydro-furan-2-yl]methoxy-methylphosphonic acid]: the negative logarithm of the IC50 (pIC50) in assay [1] and in assay [2] was above 8.00 in each case.
As to `CC(C)C#Cc1nc(NC2CCCC2)c2ccn([C@@H]3O[C@H](COCP(=O)(O)O)[C@@H](O)[C@H]3O)c2n1` [Compound 253, [(2R,3S,4R,5R)-5-[4-(cyclopentylamino)-2-(3-methylbut-1-ynyl)pyrrolo[2,3-d]-pyrimidin-7-yl]-3,4-dihydroxy-tetrahydro-furan-2-yl]methoxy-methylphosphonic acid], the pIC50 in assay [1] and in assay [2] was above 8.00 in each case.
For `CC(C)(C)C#Cc1nc(NC2CCCC2)c2ccn([C@@H]3O[C@H](COCP(=O)(O)O)[C@@H](O)[C@H]3O)c2n1` [Compound 254, [(2R,3S,4R,5R)-5-[4-(cyclopentylamino)-2-(3,3-dimethylbut-1-ynyl)pyrrolo[2,3-d]-pyrimidin-7-yl]-3,4-dihydroxy-tetrahydro-furan-2-yl]methoxy-methylphosphonic acid], the pIC50 in assay [1] and in assay [2] was 6.00 to 7.00 each time.
With `O=P(O)(O)COC[C@H]1O[C@@H](n2ccc3c(NC4CCCC4)nc(C#CC4CC4)nc32)[C@H](O)[C@@H]1O` [Compound 255, [(2R,3S,4R,5R)-5-[4-(cyclopentylamino)-2-(2-cyclopropyl-ethynyl)pyrrolo[2,3-d]-pyrimidin-7-yl]-3,4-dihydroxy-tetrahydro-furan-2-yl]methoxy-methylphosphonic acid], the pIC50 in assay [1] and in assay [2] was above 8.00 each time.
In the case of `C[C@H](O)C#Cc1nc(NC2CCCC2)c2ccn([C@@H]3O[C@H](COCP(=O)(O)O)[C@@H](O)[C@H]3O)c2n1` [Compound 256, [(2R,3S,4R,5R)-5-[4-(cyclopentylamino)-2-[(3S)-3-hydroxybut-1-ynyl]pyrrolo[2,3-d]-pyrimidin-7-yl]-3,4-dihydroxy-tetrahydro-furan-2-yl]methoxy-methylphosphonic acid], the negative-log IC50 (pIC50) in assay [1] and in assay [2] was above 8.00 each time.
As for `O=P(O)(O)COC[C@H]1O[C@@H](n2ccc3c(NC4CCCC4)nc(OCCO)nc32)[C@H](O)[C@@H]1O` [Compound 257, ((((2R,3S,4R,5R)-5-(4-(cyclopentylamino)-2-(2-hydroxyethoxy)-7H-pyrrolo[2,3-d]pyrimidin-7-yl)-3,4-dihydroxytetrahydrofuran-2-yl)methoxy)methyl)phosphonic acid], the negative logarithm of the IC50 (pIC50) in assay [1] and in assay [2] was above 8.00 throughout.
Take `O=P(O)(O)COC[C@H]1O[C@@H](n2ccc3c(NC4CCCC4)nc(OCCCO)nc32)[C@H](O)[C@@H]1O` [Compound 258, [(2R,3S,4R,5R)-5-[4-(cyclopentylamino)-2-(3-hydroxypropoxy)-pyrrolo[2,3-d]pyrimidin-7-yl]-3,4-dihydroxy-tetrahydrofuran-2-yl]-methoxymethylphos-phonic acid]: the negative logarithm of the IC50 (pIC50) is 7.00 to 8.00 in assay [1] and above 8.00 in assay [2].
As for `COCCOc1nc(NC2CCCC2)c2ccn([C@@H]3O[C@H](COCP(=O)(O)O)[C@@H](O)[C@H]3O)c2n1` [Compound 260, [(2R,3S,4R,5R)-5-[4-(cyclopentylamino)-2-(2-methoxyethoxy)-pyrrolo[2,3-d]-pyrimidin-7-yl]-3,4-dihydroxy-tetrahydro-furan-2-yl]methoxy-methylphosphonic acid], the pIC50 in assay [1] and in assay [2] was 7.00 to 8.00 throughout.
Regarding `C[C@@H](O)COc1nc(NC2CCCC2)c2ccn([C@@H]3O[C@H](COCP(=O)(O)O)[C@@H](O)[C@H]3O)c2n1` [Compound 261, [(2R,3S,4R,5R)-5-[4-(cyclopentylamino)-2-[(2R)-2-hydroxy-propoxy]pyrrolo[2,3-d]pyrimidin-7-yl]-3,4-dihydroxy-tetrahydro-furan-2-yl]methoxy-methylphosphonic acid], the negative-log IC50 (pIC50) in assay [1] and in assay [2] was above 8.00 throughout.
With `CCOc1nc(NC2CCCC2)c2ccn([C@@H]3O[C@H](COCP(=O)(O)O)[C@@H](O)[C@H]3O)c2n1` [Compound 262, [(2R,3S,4R,5R)-5-[4-(cyclopentylamino)-2-ethoxy-pyrrolo[2,3-d]-pyrimidin-7-yl]-3,4-dihydroxy-tetrahydro-furan-2-yl]methoxy-methylphosphonic acid], the pIC50 in assay [1] and in assay [2] was 7.00 to 8.00 each time.
For `CC(O)COc1nc(NC2CCCC2)c2ccn([C@@H]3O[C@H](COCP(=O)(O)O)[C@@H](O)[C@H]3O)c2n1` (stereo partly drawn) [Compound 263, [(2R,3S,4R,5R)-5-[4-(cyclopentylamino)-2-(2-hydroxypropoxy)-pyrrolo[2,3-d]pyrimidin-7-yl]-3,4-dihydroxy-tetrahydrofuran-2-yl]-methoxymethylphos-phonic acid], the negative-log IC50 (pIC50) in assay [1] and in assay [2] was above 8.00 in each case.
`C[C@H](Nc1nc(Cl)nc2c1cnn2[C@@H]1O[C@H](COCP(=O)(O)O)[C@@H](O)[C@H]1O)c1ccc(F)cc1` [Compound 265, [(2R,3S,4R,5R)-5-[6-chloro-4-[[(1S)-1-(4-fluorophenyl)ethyl]-amino]pyrazolo[3,4-d]-pyrimidin-1-yl]-3,4-dihydroxy-tetrahydro-furan-2-yl]methoxy-methylphosphonic acid]: the negative-log IC50 (pIC50) in assay [1] and in assay [2] was 7.00 to 8.00 throughout.
For the compound `CC#Cc1nc(NC2CCCC2)c2ccn([C@@H]3O[C@H](COCP(=O)(O)O)[C@@H](O)[C@H]3O)c2n1` [Compound 266, [(2R,3S,4R,5R)-5-[4-(cyclopentylamino)-2-prop-1-ynyl-pyrrolo-[2,3-d]pyrimidin-7-yl]-3,4-dihydroxy-tetrahydrofuran-2-yl]-methoxymethylphos-phonic acid], the pIC50 in assay [1] and in assay [2] was above 8.00 each time.
For the compound `C[C@@H](O)C#Cc1nc(NC2CCCC2)c2ccn([C@@H]3O[C@H](COCP(=O)(O)O)[C@@H](O)[C@H]3O)c2n1` [Compound 267, [(2R,3S,4R,5R)-5-[4-(cyclopentylamino)-2-[(3R)-3-hydroxybut-1-ynyl]pyrrolo[2,3-d]-pyrimidin-7-yl]-3,4-dihydroxy-tetrahydro-furan-2-yl]methoxy-methylphosphonic acid], the negative-log IC50 (pIC50) in assay [1] and in assay [2] was above 8.00 in each case.
With `C[C@@H](Nc1nc(Cl)nc2c1cnn2[C@@H]1O[C@H](COCP(=O)(O)O)[C@@H](O)[C@H]1O)c1ccc(F)cc1` [Compound 269, [(2R,3S,4R,5R)-5-[6-chloro-4-[[(1R)-1-(4-fluorophenyl)ethyl]-amino]pyrazolo[3,4-d]-pyrimidin-1-yl]-3,4-dihydroxy-tetrahydro-furan-2-yl]methoxy-methylphosphonic acid], the negative-log IC50 (pIC50) in assay [1] was 7.00 to 8.00; in assay [2] it was above 8.00.
In the case of `O=P(O)(O)COC[C@H]1O[C@@H](n2ncc3c(NC4CCC4)nc(Cl)nc32)[C@H](O)[C@@H]1O` [Compound 270, [(2R,3S,4R,5R)-5-[6-chloro-4-(cyclobutyl-amino)pyrazolo[3,4-d]-pyrimidin-1-yl]-3,4-dihydroxy-tetrahydro-furan-2-yl]methoxy-methylphosphonic acid], the negative-log IC50 (pIC50) in assay [1] and in assay [2] was above 8.00 in each case.
In the case of `O=P(O)(O)COC[C@H]1O[C@@H](n2ncc3c(NC4CC(F)(F)C4)nc(Cl)nc32)[C@H](O)[C@@H]1O` [Compound 271, [(2R,3S,4R,5R)-5-[6-chloro-4-[(3,3-difluoro-cyclobutyl)amino]-pyrazolo[3,4-d]-pyrimidin-1-yl]-3,4-dihydroxy-tetrahydro-furan-2-yl]methoxy-methylphosphonic acid], the pIC50 in assay [1] and in assay [2] was above 8.00 in each case.
